The results in this text go back to US20030176401A1, “Sodium salt of an azo derivative of 5-aminosalicylic acid” (priority 2000, published 2003).

Data set [1] can be described thus: Azoreduction after oral administration: distribution of product and UR-12715 in faeces, study in rats. The data set is classed as in vivo, Sprague-Dawley rats. The conditions noted are these: for relative percentage of Product (administered compound) found in faeces: female rats, 50 mg/kg oral, suspension in 0.2% CMC, mean of 3; for azoreduction after oral administration: rats. The method, then:
(§1) The level of azoreduction has been studied by determining the distribution of UR-12746 and UR-12715 in faeces after the oral administration of UR-12746 and its sodium salt in rats and monkeys.
For the study in rats, 6 female Sprague-Dawley rats weighing between 169 and 185 g were used. UR-12746 and the sodium salt of UR-12746 (polymorph I) were orally administered to three rats each as a suspension in 0.2% carboxymethylcelulose (CMC), at a dose of 50 mg/kg (100 mg of test compound/10 mL of 0.2% CMC).
The rats were placed in metabolic cages, so that urine and faeces could be separately collected, and faeces were collected during the periods 0-24 h and 24-48 h. The faeces collected in the same period were weighted and crumbled. Water was added (2 mL of water/g of faeces) and the paste obtained was stirred to homogeneity. The total weight of the homogenate was then determined.
An aliquot of this homogenate (about 2 g) was mixed with 4 mL of MeOH, stirred in a Vortex and centrifuged for 10 minutes at 4500 rpm (3000 g). The supernatant was filtered through a 0.45 μm filter, and the concentrations of the administered product and metabolite present in the sample were determined by a HPLC chromatographic method with gradient elution and ultraviolet detection, under the conditions detailed below:
The level of azoreduction was determined from the amounts of product and UR-12715 recovered in faeces. The relative percentage of the amounts corresponding to the product (UR-12746 or sodium salt of UR-12746) and to the metabolite (UR-12715) found in faeces after oral administration are shown in Table 3. Results are given as the mean values.

Data set [2] is described as follows: Azoreduction after oral administration: distribution of product and UR-12715 in faeces, study in monkeys. The data set is classed as in vivo, Cynomolgus monkeys. The conditions noted are these: for relative percentage of Product (administered compound) found in faeces: 100 mg/kg p.o. (UR-12746 suspension in 0.2% CMC; sodium salt capsules). The method, then:
as §1
6 Cynomolgus monkeys were used for this study. Each test product was administered to three monkeys, respectively. UR-12746 was administered as a suspension in 0.2% CMC, at a dose of 100 mg/kg p.o. (1000 mg UR-12746/10 mL of 0.2% CMC), whereas the sodium salt of UR-12746 (polymorph I) was administered as individualized capsules for each animal at a dose of 100 mg/kg p.o.
The monkeys were placed in metabolic cages, so that urine and faeces could be separately collected, and faeces corresponding to the periods 0-24 h, 24-48 h and 48-72 h were collected.
The treatment of the faeces and the determination of the amount of administered product and metabolite present in the samples were carried out following the same procedure described above for the study in rats.
As in the rat study, the azoreduction level was determined from the amounts of product and UR-12715 recovered in faeces.

Take `Cc1nc2cnccc2n1CC1CCN(C(=O)/C=C(/c2ccccc2)c2ccc(N=Nc3ccc(O)c(C(=O)[O-])c3)cc2)CC1.[Na+]` [Sodium salt of UR-12746, sodium salt of (Z)-2-hydroxy-5-[[4-[3-[4-[(2-methyl-1H-imidazo[4,5-c]pyridin-1-yl)methyl]-1-piperidinyl]-3-oxo-1-phenyl-1-propenyl]phenyl]azo]benzoic acid]: the “relative percentage of Product (administered compound) found in faeces” value (“relative percentage of Product” for short) in data set [1] (faeces 0-24 h) worked out at 21.1%; in data set [1] (faeces 0-48 h), 20.8%; in data set [1] (faeces 24-48 h), 12.1%; in data set [2] (faeces 0-24 h), 12.6%; in data set [2] (faeces 0-72 h), 9.7%; in data set [2] (faeces 24-48 h), 6.5%. Moreover, the “relative percentage of Product” value in data set [2] (faeces 48-72 h) is 5.0%. Besides, in data set [1], the “azoreduction after oral administration” value is “around 79%”. The “azoreduction (metabolization in the colon) after oral administration” value in data set [2] is listed as “around 90%”.
Regarding `Cc1nc2cnccc2n1CC1CCN(C(=O)/C=C(/c2ccccc2)c2ccc(N=Nc3ccc(O)c(C(=O)O)c3)cc2)CC1` [UR-12746, (Z)-2-hydroxy-5-[[4-[3-[4-[(2-methyl-1H-imidazo[4,5-c]pyridin-1-yl)methyl]-1-piperidinyl]-3-oxo-1-phenyl-1-propenyl]phenyl]azo]benzoic acid], the “relative percentage of Product” value in data set [1] (faeces 0-24 h) was 78.8%; in data set [1] (faeces 0-48 h) it was 76.1%; in data set [1] (faeces 24-48 h), 52.5%; in data set [2] (faeces 0-24 h), above 99%; in data set [2] (faeces 0-72 h) it was above 99%; in data set [2] (faeces 24-48 h), above 99%. Moreover, the “relative percentage of Product” value in data set [2] (faeces 48-72 h) is reported as above 99%. For the same compound, the “azoreduction after oral administration” value in data set [1] is 24%. For the same compound, in data set [2], the “azoreduction (metabolization in the colon) after oral administration” value is on record as “no azoreduction”.
